Here are results for 4 molecules from patent publication US20210290527A1, “Compositions and Methods for Treatment of Ocular Conditions” (EyeGate Pharmaceuticals, Inc., priority 2020, published 2021).

The structures appear in SMILES notation. Where two headings read alike, the source gives them in different places.

The conditions of series [1]: in water; cited from earlier work.
The nature of series [2]: Rheological testing, parallel plate rheometer: viscosity and shear-thinning. Type of series: physicochemical. As to the method: Thiol-modified carboxymethyl HA (CMHA-S) was synthesized as described in Lawyer et al. and Wendling et al., with a thiol modification of 0.1, 0.2, 0.4, or 0.7 μmol thiol/mg. Hydrogels were created by dissolving CMHA-S in phosphate-buffered saline (PBS; pH 7.4). The CMHA-S was disulfide crosslinked under continuous mixing with the addition of sodium hypochlorite. Rheological testing was performed using a parallel plate format rheometer with a 25 mm-diameter stainless steel geometry. Samples (5-6 ml) of hydrogel were placed in a 35 mm Petri dish, and the geometry was lowered to a gap of 5 mm. To determine viscosity and shear-thinning, the shear rate was varied from 0.1 to 10 Hz. A decreasing viscosity as shear rate increases indicates shear-thinning behavior.
Viscosity was determined as described in Example 1.

The procedure of series [3]: (§1) RI was measured with a refractometer and pH was measured with a pH meter.
Series [4] in a line: pH measured with a pH meter. Type of series: physicochemical. On the procedure: as §1
The nature of series [5]: Release of therapeutic from hydrogel in medi-dialysis chamber into PBS. Type of series: physicochemical. Conditions: therapeutic at 1 mg/ml, over 24 hours, dialysis chamber MWCO 50 kDa, UV spectroscopy. On the procedure: FIGS. 3A, 3B, 3C, and 3D show the release of therapeutic from hydrogel (“OBG”; blue circles on the graphs) or PBS (green circles on the graphs) into PBS in a medi-dialysis chamber (MWCO, 50 kDa) over time.
The release was monitored over 24 hours and compared to release of the therapeutic from solution in PBS. For this assessment, a 0.5 ml sample of hydrogel plus therapeutic or PBS plus therapeutic was placed into a medi-dialysis chamber, and the chamber was placed in a beaker containing 100 ml of PBS. The remaining amount of therapeutic in the dialysis chamber was monitored using UV spectroscopy at various time points.

Where [6] appears, read: drug incorporated at 1 mg/ml in CMHA-S hydrogel.
The mark [7] stands for this setting: LE 2.5 mg/ml in CMHA-S hydrogel.
Setting [8] is: PredA 1 mg/ml in CMHA-S hydrogel.
Where [9] appears, read: PredA 5 mg/ml in CMHA-S hydrogel.
[10] abbreviates: PredA 10 mg/ml in CMHA-S hydrogel.

`C[C@@H]1C[C@H]2[C@@H]3CCC4=CC(=O)C=C[C@]4(C)[C@@]3(F)[C@@H](O)C[C@]2(C)[C@@]1(O)C(=O)CO` [Dexamethasone, dexamethasone]: in series [1], the water solubility result is listed as “less than 0.09 mg/ml”.

Take `CN(C)CC/C=C1/c2ccccc2COc2ccc(CC(=O)O)cc21` [Olopatadine, olopatadine]: the “Viscosity at 2.5 Hz” value in series [2] (setting [6]) came to 1.1 Pa · s. The RI in series [3] (setting [6]) is 1.3353. For the same molecule, in series [4] (setting [6]), the pH is 7.3. Besides, the water solubility entry in series [1] is “about 0.03 mg/ml”.

Take `CCOC(=O)O[C@]1(C(=O)OCCl)CC[C@H]2[C@@H]3CCC4=CC(=O)C=C[C@]4(C)[C@H]3[C@@H](O)C[C@@]21C` [LE, loteprednol etabonate]: the “Viscosity at 2.5 Hz” value in series [2] (LE 1 mg/ml in CMHA-S hydrogel) worked out at 2.3 Pa · s; in series [2] (setting [7]) it was 2.7 Pa · s; in series [2] (LE 5 mg/ml in CMHA-S hydrogel), 3.3 Pa · s. Also, the RI in series [3] (LE 1 mg/ml in CMHA-S hydrogel) amounted to 1.3355; in series [3] (setting [7]) it was 1.3354; in series [3] (LE 5 mg/ml in CMHA-S hydrogel), 1.3353. In addition, the pH in series [4] (LE 1 mg/ml in CMHA-S hydrogel) is reported as 7.11; in series [4] (setting [7]) it was 7.24; in series [4] (LE 5 mg/ml in CMHA-S hydrogel), 7.55. In series [5], the “release from the hydrogel compared to release from PBS” value is “reduced compared to its release from PBS”. Moreover, the water solubility entry in series [1] is “less than 0.001 mg/ml”.

With `CC(=O)OCC(=O)[C@@]1(O)CC[C@H]2[C@@H]3CCC4=CC(=O)C=C[C@]4(C)[C@H]3[C@@H](O)C[C@@]21C` [PredA, prednisolone acetate], the entries for the “Viscosity at 2.5 Hz” value in series [2] (setting [8]), in series [2] (setting [9]) and in series [2] (setting [10]) were 2.0 Pa · s, 2.7 Pa · s and 3.0 Pa · s, respectively. The pH was determined as 7.09 in series [4] (setting [8]), 7.13 in series [4] (setting [9]) and 7.17 in series [4] (setting [10]).
